In brackets after ≈: the same amount, converted by molar mass.
test system: clinical strains; assay: organism not typed; assay type: cell-based; details: read-out: MIC clinical strains
Procedure: (§1) The antimicrobial activity of compounds was expressed by minimum inhibitory concentration values (MICs), according to CLCI reference procedures with some modifications. MIC was tested by the two-fold serial microdilution method (in 96-well microtiter plates) on MH II liquid medium. The final inoculum of all of the studied bacteria was 10^6 CFU/mL (colony forming unit per mL). The stock solution of tested compounds was prepared in DMSO and was diluted in sterile medium (to a maximum of 1% of solvent content). The concentrations of compounds were from 16 to 512 µg/mL. […] Clinical microorganisms used in this study were obtained from the collection of the Department of Pharmaceutical Microbiology, Medical University of Warsaw, Poland [70, 71].

Structure (SMILES) | MIC
COc1cc2oc(C(C)=O)c(CBr)c2c(OC)c1Br [Compound 7, 1-[5-Bromo-3-(Bromomethyl)-4,6-Dimethoxy-1-Benzofuran-2-yl]Ethanone] | > 250 µg/mL

test system: K562 leukemic cell line; assay: not given; set-up: method as in PMID 20657389, PMID 25482722, PMID 30465514, PMID 31003438; details: lead compound; ref [32],[33],[34],[35]; cited from earlier work

Structure (SMILES) | IC50
COc1cc2c(CBr)c(C(C)=O)oc2c(C(C)=O)c1OC [1,1′-[3-(bromomethyl)-5,6-dimethoxy-1-benzofuran-2,7-diyl]diethanone] | 5 µM

test system: S. epiderminis ATCC 122228; assay: MIC, microdilution; assay type: cell-based; details: Staphylococcus epidermidis, ATCC122228, 18 h, read-out: MIC S. epiderminis ATCC 122228
Procedure: (§2) The antimicrobial studies for all of the obtained compounds were conducted using reference strains of bacteria derived from international microbe collections—the American Type Culture Collection (ATCC) and the National Collection of Type Culture (NCTC). Among the reference strains there were two Gram-negative rods (P. aeruginosa ATCC 15442 and E. coli ATCC 25922) and six Gram-positive isolates (Staphylococcus aureus: NCTC 4163, ATCC 25923, ATCC 6538, ATCC 29213, S. epidermidis ATCC 12228, ATCC 35984).
as §1

Structure (SMILES) | MIC
COc1cc2oc(C(C)=O)c(CBr)c2c(OC)c1Br [Compound 7, 1-[5-Bromo-3-(Bromomethyl)-4,6-Dimethoxy-1-Benzofuran-2-yl]Ethanone] | 16 µg/mL (≈ 40.8 µM)

test system: S.aureus ATCC 25923; assay: MIC, microdilution; assay type: cell-based; details: Staphylococcus aureus, ATCC25923; 18 h, 35 °C, MH II medium
Procedure: as §2, §1

Structure (SMILES) | MIC
COc1cc2oc(C(C)=O)c(CBr)c2c(OC)c1Br [Compound 7, 1-[5-Bromo-3-(Bromomethyl)-4,6-Dimethoxy-1-Benzofuran-2-yl]Ethanone] | 16 µg/mL (≈ 40.8 µM)

test system: E. coli ATCC 25922; assay: MIC, microdilution; assay type: cell-based; details: Escherichia coli, ATCC25922; 18 h, 35 °C, MH II medium
Procedure: as §2, §1

Structure (SMILES) | MIC
COc1cc2oc(C(C)=O)c(CBr)c2c(OC)c1Br [Compound 7, 1-[5-Bromo-3-(Bromomethyl)-4,6-Dimethoxy-1-Benzofuran-2-yl]Ethanone] | > 512 µg/mL

test system: S.aureus ATCC 6538; assay: MIC, microdilution; assay type: cell-based; details: Staphylococcus aureus, ATCC6538; 18 h, 35 °C, MH II medium
Procedure: as §2, §1

Structure (SMILES) | MIC
COc1cc2oc(C(C)=O)c(CBr)c2c(OC)c1Br [Compound 7, 1-[5-Bromo-3-(Bromomethyl)-4,6-Dimethoxy-1-Benzofuran-2-yl]Ethanone] | 64 µg/mL (≈ 163 µM)

test system: S. epidermidis ATCC 35984; assay: MIC, microdilution; assay type: cell-based; details: Staphylococcus epidermidis, ATCC35984; 18 h, 35 °C, MH II medium
Procedure: as §2, §1

Structure (SMILES) | MIC
COc1cc2oc(C(C)=O)c(CBr)c2c(OC)c1Br [Compound 7, 1-[5-Bromo-3-(Bromomethyl)-4,6-Dimethoxy-1-Benzofuran-2-yl]Ethanone] | 16 µg/mL (≈ 40.8 µM)

test system: S.aureus NCTC 4163; assay: MIC, microdilution; assay type: cell-based; details: Staphylococcus aureus, NCTC4163; 18 h, 35 °C, MH II medium
Procedure: as §2, §1

Structure (SMILES) | MIC
COc1cc2oc(C(C)=O)c(CBr)c2c(OC)c1Br [Compound 7, 1-[5-Bromo-3-(Bromomethyl)-4,6-Dimethoxy-1-Benzofuran-2-yl]Ethanone] | > 512 µg/mL

test system: P. aeruginosa ATCC 15442; assay: MIC, microdilution; assay type: cell-based; details: Pseudomonas aeruginosa, ATCC15442; 18 h, 35 °C, MH II medium
Procedure: as §2, §1

Structure (SMILES) | MIC
COc1cc2oc(C(C)=O)c(CBr)c2c(OC)c1Br [Compound 7, 1-[5-Bromo-3-(Bromomethyl)-4,6-Dimethoxy-1-Benzofuran-2-yl]Ethanone] | > 512 µg/mL

test system: S.aureus NCTC 29213; assay: MIC, microdilution; assay type: cell-based; details: Staphylococcus aureus, NCTC29213, 18 h, read-out: MIC S.aureus NCTC 29213
Procedure: as §2, §1

Structure (SMILES) | MIC
COc1cc2oc(C(C)=O)c(CBr)c2c(OC)c1Br [Compound 7, 1-[5-Bromo-3-(Bromomethyl)-4,6-Dimethoxy-1-Benzofuran-2-yl]Ethanone] | 32 µg/mL (≈ 81.6 µM)

test system: HeLa cancer cells; assay: not given; set-up: method as in PMID 20657389, PMID 25482722, PMID 30465514, PMID 31003438; details: lead compound; ref [32],[33],[34],[35]; cited from earlier work

Structure (SMILES) | Toxicity toward HeLa cancer cells
COc1cc2c(CBr)c(C(C)=O)oc2c(C(C)=O)c1OC [1,1′-[3-(bromomethyl)-5,6-dimethoxy-1-benzofuran-2,7-diyl]diethanone] | exhibiting toxicity toward neither HeLa cancer cells

test system: Cacki-1 cells (human clear cell renal cell carcinoma); assay: MTT cytotoxicity assay, Cacki-1; assay type: cell-based; details: 72 h incubation
Procedure: (§3) The cell viability was analyzed at the following six concentrations of compounds: 5, 10, 20, 40, 60 and 100 µM after 72 h incubation.
(§4) Additionally, to determine the safety profile of the tested compounds, the therapeutic index (TI) (the ratio of IC50 value in HaCaT to cancer cells K562) was calculated. […] The goal of conducting the MTT assay in this research was to select benzofuran derivatives, which manage to reduce viability of cancer cells while exposing mild effects on normal healthy cells.
(§5) The cytotoxicity was evaluated by MTT reduction assay, which measures mitochondrial respiratory function. The test was performed based on the method described by Präbst et al.. Cells (1 × 10^4/well), in logarithmic phase, were seeded into 96-well plates in appropriate medium. After 24 h, cells were exposed to test compounds. […] After 72 h, the medium with the compounds was completely removed and MTT solution (0.5 mg/mL) in fresh medium without serum was added to each well. Plates with cells were incubated for 4 h at 37 °C in the dark. Then, MTT solution was removed and replenished with 0.1 mL DMSO: isopropanol (1:1) mixture to dissolve the generated formazan crystals. The optical density was measured with a […] GO (ThermoScientific) microplate reader at 570 nm. Replicates of three wells for each dosage, including vehicle control, were analyzed for each experiment. The experiments were conducted in triplicate. Control cells which were only treated with respective medium were used as the 100% viability value. […] Additionally, to determine the safety profile of the test compounds, therapeutic indexes (TI) (the ratio of IC50 values in HaCat to cancer cells (K562, PC3, SW620, Cack-1)) were calculated.

Structure (SMILES) | IC50
CCOc1cccc2oc(C(C)=O)c(C)c12 [Compound 3, 1-(4-Ethoxy-3-Methyl-1-Benzofuran-2-yl)Ethanone] | > 100 µM
CCOc1ccc2c(CBr)c(C(C)=O)oc2c1 [Compound 9, 1-[3-(Bromomethyl)-6-Ethoxy-1-Benzofuran-2-yl]Ethanone] | > 100 µM
COc1ccc2oc(C(C)=O)c(CBr)c2c1 [Compound 5, 1-[3-(Bromomethyl)-5-Methoxy-1-Benzofuran-2-yl]Ethanone] | > 100 µM
COc1cc2oc(C(C)=O)c(CBr)c2c(OC)c1Br [Compound 7, 1-[5-Bromo-3-(Bromomethyl)-4,6-Dimethoxy-1-Benzofuran-2-yl]Ethanone] | > 100 µM

test system: K562 cells (human chronic myelogenous leukemia); assay: MTT cytotoxicity assay, K562; assay type: cell-based; details: 72 h incubation, mean ± SD
Procedure: as §3, §4, §5

Structure (SMILES) | IC50
CCOc1cccc2oc(C(C)=O)c(C)c12 [Compound 3, 1-(4-Ethoxy-3-Methyl-1-Benzofuran-2-yl)Ethanone] | 58 ± 21.1 µM
CCOc1ccc2c(CBr)c(C(C)=O)oc2c1 [Compound 9, 1-[3-(Bromomethyl)-6-Ethoxy-1-Benzofuran-2-yl]Ethanone] | 14.4 ± 3.7 µM
COc1ccc2oc(C(C)=O)c(CBr)c2c1 [Compound 5, 1-[3-(Bromomethyl)-5-Methoxy-1-Benzofuran-2-yl]Ethanone] | 10.3 ± 0.55 µM
COc1cc2oc(C(C)=O)c(CBr)c2c(OC)c1Br [Compound 7, 1-[5-Bromo-3-(Bromomethyl)-4,6-Dimethoxy-1-Benzofuran-2-yl]Ethanone] | 50 ± 10 µM

test system: PC3 cells (human metastatic prostate cancer); assay: MTT cytotoxicity assay, PC3; assay type: cell-based; details: PC-3, 72 h incubation, mean ± SD
Procedure: as §3, §4, §5

Structure (SMILES) | IC50
CCOc1cccc2oc(C(C)=O)c(C)c12 [Compound 3, 1-(4-Ethoxy-3-Methyl-1-Benzofuran-2-yl)Ethanone] | 66.4 ± 28.7 µM
CCOc1ccc2c(CBr)c(C(C)=O)oc2c1 [Compound 9, 1-[3-(Bromomethyl)-6-Ethoxy-1-Benzofuran-2-yl]Ethanone] | 40 ± 20 µM
COc1ccc2oc(C(C)=O)c(CBr)c2c1 [Compound 5, 1-[3-(Bromomethyl)-5-Methoxy-1-Benzofuran-2-yl]Ethanone] | 17.5 ± 3.5 µM
COc1cc2oc(C(C)=O)c(CBr)c2c(OC)c1Br [Compound 7, 1-[5-Bromo-3-(Bromomethyl)-4,6-Dimethoxy-1-Benzofuran-2-yl]Ethanone] | 40 ± 15 µM

test system: HaCaT cells (human immortal keratinocytes); assay: MTT cytotoxicity assay, HaCaT; assay type: cell-based; details: 72 h incubation, mean ± SD
Procedure: as §3, §4, §5

Structure (SMILES) | IC50
CCOc1cccc2oc(C(C)=O)c(C)c12 [Compound 3, 1-(4-Ethoxy-3-Methyl-1-Benzofuran-2-yl)Ethanone] | > 100 µM
CCOc1ccc2c(CBr)c(C(C)=O)oc2c1 [Compound 9, 1-[3-(Bromomethyl)-6-Ethoxy-1-Benzofuran-2-yl]Ethanone] | 22.8 ± 1.51 µM
COc1ccc2oc(C(C)=O)c(CBr)c2c1 [Compound 5, 1-[3-(Bromomethyl)-5-Methoxy-1-Benzofuran-2-yl]Ethanone] | 15 ± 0.8 µM
COc1cc2oc(C(C)=O)c(CBr)c2c(OC)c1Br [Compound 7, 1-[5-Bromo-3-(Bromomethyl)-4,6-Dimethoxy-1-Benzofuran-2-yl]Ethanone] | 5.69 ± 5.67 µM

test system: SW620 cells (human metastatic colon cancer); assay: MTT cytotoxicity assay, SW620; assay type: cell-based; details: SW-620, 72 h incubation, mean ± SD
Procedure: as §3, §4, §5

Structure (SMILES) | IC50
CCOc1cccc2oc(C(C)=O)c(C)c12 [Compound 3, 1-(4-Ethoxy-3-Methyl-1-Benzofuran-2-yl)Ethanone] | 52.3 ± 22.5 µM
CCOc1ccc2c(CBr)c(C(C)=O)oc2c1 [Compound 9, 1-[3-(Bromomethyl)-6-Ethoxy-1-Benzofuran-2-yl]Ethanone] | > 100 µM
COc1ccc2oc(C(C)=O)c(CBr)c2c1 [Compound 5, 1-[3-(Bromomethyl)-5-Methoxy-1-Benzofuran-2-yl]Ethanone] | 15.6 ± 4.1 µM
COc1cc2oc(C(C)=O)c(CBr)c2c(OC)c1Br [Compound 7, 1-[5-Bromo-3-(Bromomethyl)-4,6-Dimethoxy-1-Benzofuran-2-yl]Ethanone] | 47.1 ± 22.2 µM

test system: HL-60 leukemic cell line; assay: not given; set-up: method as in PMID 20657389, PMID 25482722, PMID 30465514, PMID 31003438; details: lead compound; ref [32],[33],[34],[35]; cited from earlier work

Structure (SMILES) | IC50
COc1cc2c(CBr)c(C(C)=O)oc2c(C(C)=O)c1OC [1,1′-[3-(bromomethyl)-5,6-dimethoxy-1-benzofuran-2,7-diyl]diethanone] | 0.1 µM

test system: not given; assay: not given; details: not given

Structure (SMILES) | melting point
CCOc1cccc2oc(C(C)=O)c(C)c12 [Compound 3, 1-(4-Ethoxy-3-Methyl-1-Benzofuran-2-yl)Ethanone] | 60 to 65 °C
CCOc1ccc2c(CBr)c(C(C)=O)oc2c1 [Compound 9, 1-[3-(Bromomethyl)-6-Ethoxy-1-Benzofuran-2-yl]Ethanone] | 98 to 105 °C
COc1ccc2oc(C(C)=O)c(CBr)c2c1 [Compound 5, 1-[3-(Bromomethyl)-5-Methoxy-1-Benzofuran-2-yl]Ethanone] | 103 to 106 °C
COc1cc2oc(C(C)=O)c(CBr)c2c(OC)c1Br [Compound 7, 1-[5-Bromo-3-(Bromomethyl)-4,6-Dimethoxy-1-Benzofuran-2-yl]Ethanone] | 165 to 171 °C

Source: article PMC10888192, “New Derivatives of 1-(3-Methyl-1-Benzofuran-2-yl)Ethan-1-one: Synthesis and Preliminary Studies of Biological Activity” (International Journal of Molecular Sciences, 2024)
